Ten molecules from PMC9927415, “Tyrosine Kinase Inhibitors Display Potent Activity against Cryptosporidium parvum” (Microbiology Spectrum, 2022) can be followed below.

In series [1] the target is T1, PAK2 (Homo sapiens, UniProt Q13177).
T1 construct: purchased DiscoverX (KINOMEscan)
Briefly: KINOMEscan competitive binding. Conditions: n=1, read-out: Percent inhibition, PAK2.

The target of series [2] is T2, TNNI3K (Homo sapiens, UniProt Q59H18).
T2 construct: purchased DiscoverX (KINOMEscan)
T2 sequence (Q59H18 1-835): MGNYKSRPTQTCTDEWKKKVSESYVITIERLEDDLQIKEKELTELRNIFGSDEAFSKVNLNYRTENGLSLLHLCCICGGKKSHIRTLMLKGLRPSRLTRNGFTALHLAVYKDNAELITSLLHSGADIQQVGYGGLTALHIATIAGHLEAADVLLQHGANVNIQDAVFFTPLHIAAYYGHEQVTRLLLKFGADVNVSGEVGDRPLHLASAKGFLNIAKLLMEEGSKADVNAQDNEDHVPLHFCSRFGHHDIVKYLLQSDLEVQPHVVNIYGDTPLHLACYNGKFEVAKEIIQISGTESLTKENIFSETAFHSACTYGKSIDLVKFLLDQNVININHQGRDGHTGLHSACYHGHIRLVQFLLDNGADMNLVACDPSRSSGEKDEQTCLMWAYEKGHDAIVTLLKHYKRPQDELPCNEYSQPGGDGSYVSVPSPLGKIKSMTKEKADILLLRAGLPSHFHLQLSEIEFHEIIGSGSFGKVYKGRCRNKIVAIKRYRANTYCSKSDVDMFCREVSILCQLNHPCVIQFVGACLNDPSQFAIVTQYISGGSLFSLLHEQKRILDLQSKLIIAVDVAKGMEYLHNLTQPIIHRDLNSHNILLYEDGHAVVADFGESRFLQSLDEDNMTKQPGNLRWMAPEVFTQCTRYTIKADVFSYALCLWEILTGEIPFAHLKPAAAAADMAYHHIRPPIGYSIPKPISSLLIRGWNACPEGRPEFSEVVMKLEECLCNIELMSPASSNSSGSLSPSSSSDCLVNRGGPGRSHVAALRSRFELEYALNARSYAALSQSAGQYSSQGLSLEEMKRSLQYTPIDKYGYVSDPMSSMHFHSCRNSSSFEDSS
Briefly: KINOMEscan competitive binding. Conditions: n=1, read-out: Percent inhibition, TNNI3K.

Series [3] concerns the target T3, TIE2 (Homo sapiens, UniProt Q02763).
T3 construct: purchased DiscoverX (KINOMEscan)
Nature of the series: KINOMEscan competitive binding. Conditions: n=1, read-out: Percent inhibition, TIE2.

Series [4] concerns the target T4, SRC (Homo sapiens, UniProt P12931).
T4 construct: purchased DiscoverX (KINOMEscan)
Nature of the series: KINOMEscan competitive binding. Conditions: n=1, read-out: Percent inhibition, SRC.

The target in series [5] is T5, RAF1 (Homo sapiens, UniProt P04049).
T5 construct: purchased DiscoverX (KINOMEscan)
T5 sequence (P04049 whole entry): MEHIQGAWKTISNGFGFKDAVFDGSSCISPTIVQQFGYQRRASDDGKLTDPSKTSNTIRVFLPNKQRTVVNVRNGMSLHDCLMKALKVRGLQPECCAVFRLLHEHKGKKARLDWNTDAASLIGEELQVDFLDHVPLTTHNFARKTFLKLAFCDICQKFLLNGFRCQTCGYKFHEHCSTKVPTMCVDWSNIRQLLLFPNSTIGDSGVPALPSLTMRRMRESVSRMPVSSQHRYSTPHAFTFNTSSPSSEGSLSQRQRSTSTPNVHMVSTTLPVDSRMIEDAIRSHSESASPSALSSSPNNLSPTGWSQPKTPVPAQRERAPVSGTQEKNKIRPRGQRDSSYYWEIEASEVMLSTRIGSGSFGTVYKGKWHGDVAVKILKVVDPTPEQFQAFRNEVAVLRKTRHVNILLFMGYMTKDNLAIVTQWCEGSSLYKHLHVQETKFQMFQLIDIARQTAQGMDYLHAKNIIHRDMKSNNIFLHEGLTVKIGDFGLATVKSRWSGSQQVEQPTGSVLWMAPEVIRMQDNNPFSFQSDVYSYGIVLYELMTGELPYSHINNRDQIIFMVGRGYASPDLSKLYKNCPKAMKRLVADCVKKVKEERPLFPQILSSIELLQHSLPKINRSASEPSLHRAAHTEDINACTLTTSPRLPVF
Briefly: KINOMEscan competitive binding. Conditions: n=1, read-out: Percent inhibition, RAF1.

The nature of series [6]: Host cell cytotoxicity assay (CellTiter-Glo). Conditions: human, HepG2 cells. How it is done: HepG2 cells were grown in Eagle’s Minimum Essential Medium (MEM) containing 10% FBS, 1% nonessential amino acids (NEAA) and 1% penicillin/streptomycin to >50% confluence prior to harvesting. Cells were suspended in media and 3000 cells per well were added onto 384-well clear bottom plates. Prior to addition of the cell suspension, the screening compounds (250 nl) were predispensed into plates using a liquid handler. Plates were incubated for 48 h at 37°C, 5% CO2. After 48 h of incubation, plates were equilibrated at room temperature for 30 min before luminescence signal was measured using CellTiter-Glo Reagent. Plates were kept at room temperature for 10 min to stabilize the signal and then read using a ViewLux luminescence reader. The HepG2 CC50 (from the host cell cytotoxicity assays) and C. parvum mean EC50 (from parasite growth inhibition assays) values were used to calculate selectivity index.

Series [7] has as its target T6, SYK (Homo sapiens, UniProt P43405).
T6 construct: purchased DiscoverX (KINOMEscan)
Briefly: KINOMEscan competitive binding. Conditions: n=1, read-out: Percent inhibition, SYK.

The target in series [8] is T7, PAK1 (Homo sapiens, UniProt Q13153).
T7 construct: purchased DiscoverX (KINOMEscan)
T7 sequence (Q13153 whole entry): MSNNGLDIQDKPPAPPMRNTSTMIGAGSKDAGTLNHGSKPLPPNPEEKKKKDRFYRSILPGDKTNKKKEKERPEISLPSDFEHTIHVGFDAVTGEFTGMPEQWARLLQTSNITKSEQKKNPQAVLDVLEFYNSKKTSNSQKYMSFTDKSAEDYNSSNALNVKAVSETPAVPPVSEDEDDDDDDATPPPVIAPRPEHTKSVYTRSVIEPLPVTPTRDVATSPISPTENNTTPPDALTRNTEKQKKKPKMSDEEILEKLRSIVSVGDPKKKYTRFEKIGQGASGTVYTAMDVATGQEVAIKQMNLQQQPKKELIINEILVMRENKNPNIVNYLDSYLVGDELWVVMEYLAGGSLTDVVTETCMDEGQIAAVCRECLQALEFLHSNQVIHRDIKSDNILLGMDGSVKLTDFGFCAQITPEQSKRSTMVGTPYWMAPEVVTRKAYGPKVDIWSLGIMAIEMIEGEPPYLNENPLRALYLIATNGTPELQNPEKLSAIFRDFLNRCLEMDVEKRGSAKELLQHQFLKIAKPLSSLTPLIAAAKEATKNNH
Nature of the series: KINOMEscan competitive binding. Conditions: n=1, read-out: Percent inhibition, PAK1.

The target in series [9] is T8, PCTK1 (Homo sapiens, UniProt Q00536).
T8 construct: purchased DiscoverX (KINOMEscan)
T8 sequence (Q00536 whole entry): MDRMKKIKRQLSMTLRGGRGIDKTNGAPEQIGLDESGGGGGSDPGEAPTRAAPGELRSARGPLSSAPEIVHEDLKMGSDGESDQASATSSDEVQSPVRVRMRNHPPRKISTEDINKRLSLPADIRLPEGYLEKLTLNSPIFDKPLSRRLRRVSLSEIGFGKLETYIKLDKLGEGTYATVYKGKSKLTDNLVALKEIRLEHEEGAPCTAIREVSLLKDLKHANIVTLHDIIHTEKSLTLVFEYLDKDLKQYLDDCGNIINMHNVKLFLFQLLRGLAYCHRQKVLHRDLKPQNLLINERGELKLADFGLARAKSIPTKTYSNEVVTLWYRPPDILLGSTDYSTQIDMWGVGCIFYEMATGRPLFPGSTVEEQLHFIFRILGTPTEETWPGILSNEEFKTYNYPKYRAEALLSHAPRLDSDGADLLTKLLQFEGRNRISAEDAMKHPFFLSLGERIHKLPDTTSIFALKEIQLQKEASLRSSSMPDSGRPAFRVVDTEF
Briefly: KINOMEscan competitive binding. Conditions: n=1, read-out: Percent inhibition, PCTK1.

The target in series [10] is T9, PLK3 (Homo sapiens, UniProt Q9H4B4).
T9 construct: purchased DiscoverX (KINOMEscan)
Nature of the series: KINOMEscan competitive binding. Conditions: n=1, read-out: Percent inhibition, PLK3.

For series [11], the target named is T10, SLK (Homo sapiens, UniProt Q9H2G2).
T10 construct: purchased DiscoverX (KINOMEscan)
Briefly: KINOMEscan competitive binding. Conditions: n=1, read-out: Percent inhibition, SLK.

Series [12] deals with T11, TRKC (Homo sapiens, UniProt Q16288).
T11 construct: purchased DiscoverX (KINOMEscan)
Nature of the series: KINOMEscan competitive binding. Conditions: n=1, read-out: Percent inhibition, TRKC.

Series [13] deals with T12, PKN2 (Homo sapiens, UniProt Q16513).
T12 construct: purchased DiscoverX (KINOMEscan)
T12 sequence (Q16513 whole entry): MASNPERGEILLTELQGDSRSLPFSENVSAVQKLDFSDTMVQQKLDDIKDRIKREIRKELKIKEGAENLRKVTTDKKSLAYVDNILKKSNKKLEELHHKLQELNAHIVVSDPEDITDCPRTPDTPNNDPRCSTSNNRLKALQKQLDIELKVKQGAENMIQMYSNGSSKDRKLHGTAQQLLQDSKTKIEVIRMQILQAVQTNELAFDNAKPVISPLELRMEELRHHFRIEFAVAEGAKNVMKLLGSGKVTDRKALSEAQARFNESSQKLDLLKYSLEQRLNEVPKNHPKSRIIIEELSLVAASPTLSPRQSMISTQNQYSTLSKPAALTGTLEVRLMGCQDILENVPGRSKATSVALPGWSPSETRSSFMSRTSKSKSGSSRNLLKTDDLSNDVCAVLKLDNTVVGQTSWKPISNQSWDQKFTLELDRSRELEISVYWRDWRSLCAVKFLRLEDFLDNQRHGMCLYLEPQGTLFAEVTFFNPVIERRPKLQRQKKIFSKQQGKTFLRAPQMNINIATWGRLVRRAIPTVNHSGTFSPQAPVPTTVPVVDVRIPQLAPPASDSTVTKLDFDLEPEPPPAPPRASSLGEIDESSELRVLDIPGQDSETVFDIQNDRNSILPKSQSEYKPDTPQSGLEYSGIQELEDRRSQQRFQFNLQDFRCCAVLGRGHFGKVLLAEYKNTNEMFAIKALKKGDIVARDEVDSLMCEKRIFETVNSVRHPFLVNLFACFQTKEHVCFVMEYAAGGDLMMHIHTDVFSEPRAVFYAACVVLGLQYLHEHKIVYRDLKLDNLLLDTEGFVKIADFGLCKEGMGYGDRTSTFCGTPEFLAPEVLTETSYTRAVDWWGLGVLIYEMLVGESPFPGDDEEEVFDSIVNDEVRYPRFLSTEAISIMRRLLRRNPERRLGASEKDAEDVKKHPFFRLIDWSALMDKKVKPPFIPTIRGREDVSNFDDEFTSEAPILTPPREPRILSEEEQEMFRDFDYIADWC
Nature of the series: KINOMEscan competitive binding. Conditions: n=1, read-out: Percent inhibition, PKN2.

T1 sequence (Q13177 whole entry): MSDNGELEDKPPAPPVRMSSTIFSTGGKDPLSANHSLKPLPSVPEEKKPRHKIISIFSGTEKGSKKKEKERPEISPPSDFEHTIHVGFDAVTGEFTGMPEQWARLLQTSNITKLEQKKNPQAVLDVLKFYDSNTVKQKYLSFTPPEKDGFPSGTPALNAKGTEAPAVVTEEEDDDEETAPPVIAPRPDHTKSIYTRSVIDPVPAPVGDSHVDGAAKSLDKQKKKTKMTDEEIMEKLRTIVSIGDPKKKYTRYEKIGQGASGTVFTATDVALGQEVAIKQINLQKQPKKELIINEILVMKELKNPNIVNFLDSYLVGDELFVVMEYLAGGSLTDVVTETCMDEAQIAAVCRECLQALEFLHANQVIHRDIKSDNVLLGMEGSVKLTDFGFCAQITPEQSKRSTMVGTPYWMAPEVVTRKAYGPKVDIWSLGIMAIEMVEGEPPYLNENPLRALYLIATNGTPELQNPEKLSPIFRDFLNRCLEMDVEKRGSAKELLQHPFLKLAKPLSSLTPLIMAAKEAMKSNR
T3 sequence (Q02763 23-1124): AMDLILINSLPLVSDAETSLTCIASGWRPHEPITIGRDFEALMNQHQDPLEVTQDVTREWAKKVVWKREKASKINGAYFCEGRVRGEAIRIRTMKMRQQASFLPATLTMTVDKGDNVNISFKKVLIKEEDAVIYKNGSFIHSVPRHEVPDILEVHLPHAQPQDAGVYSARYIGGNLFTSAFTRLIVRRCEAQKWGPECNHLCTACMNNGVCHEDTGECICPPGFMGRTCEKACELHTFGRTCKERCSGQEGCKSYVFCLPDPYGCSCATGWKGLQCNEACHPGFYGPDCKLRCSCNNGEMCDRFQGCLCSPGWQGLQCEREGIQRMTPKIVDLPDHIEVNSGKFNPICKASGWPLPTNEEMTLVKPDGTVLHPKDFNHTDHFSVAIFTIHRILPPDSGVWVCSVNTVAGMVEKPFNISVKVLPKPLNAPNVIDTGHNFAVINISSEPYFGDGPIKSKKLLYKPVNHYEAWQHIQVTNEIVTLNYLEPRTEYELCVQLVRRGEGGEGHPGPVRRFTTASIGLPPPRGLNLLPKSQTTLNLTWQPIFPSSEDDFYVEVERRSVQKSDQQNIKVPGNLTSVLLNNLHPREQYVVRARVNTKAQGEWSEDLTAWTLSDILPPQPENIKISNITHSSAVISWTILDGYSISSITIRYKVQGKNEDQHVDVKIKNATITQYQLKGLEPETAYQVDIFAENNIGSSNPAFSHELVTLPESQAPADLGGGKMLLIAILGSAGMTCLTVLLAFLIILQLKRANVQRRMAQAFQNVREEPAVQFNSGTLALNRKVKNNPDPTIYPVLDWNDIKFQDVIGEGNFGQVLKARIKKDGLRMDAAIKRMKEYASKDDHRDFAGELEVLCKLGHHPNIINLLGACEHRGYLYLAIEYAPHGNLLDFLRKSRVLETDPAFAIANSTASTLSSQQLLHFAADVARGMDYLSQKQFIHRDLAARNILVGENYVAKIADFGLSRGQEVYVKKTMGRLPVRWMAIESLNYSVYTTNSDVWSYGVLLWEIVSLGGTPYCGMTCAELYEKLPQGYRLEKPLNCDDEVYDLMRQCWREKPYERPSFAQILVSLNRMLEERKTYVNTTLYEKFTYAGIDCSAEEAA
T4 sequence (P12931 whole entry): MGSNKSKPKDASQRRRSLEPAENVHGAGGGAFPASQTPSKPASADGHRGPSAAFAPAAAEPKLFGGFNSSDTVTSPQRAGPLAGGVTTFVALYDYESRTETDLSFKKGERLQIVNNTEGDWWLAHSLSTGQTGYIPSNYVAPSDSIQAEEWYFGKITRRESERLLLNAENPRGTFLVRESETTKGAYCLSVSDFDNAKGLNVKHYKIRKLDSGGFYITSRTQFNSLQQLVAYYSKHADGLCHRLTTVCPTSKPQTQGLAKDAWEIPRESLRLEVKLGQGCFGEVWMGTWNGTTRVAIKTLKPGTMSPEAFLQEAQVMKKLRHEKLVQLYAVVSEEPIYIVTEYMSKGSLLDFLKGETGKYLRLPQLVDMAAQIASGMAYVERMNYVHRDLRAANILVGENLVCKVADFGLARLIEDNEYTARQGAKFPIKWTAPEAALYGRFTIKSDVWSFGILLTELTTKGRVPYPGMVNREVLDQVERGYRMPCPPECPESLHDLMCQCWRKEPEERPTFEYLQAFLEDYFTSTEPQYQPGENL

`CN1CCN(c2ccc(Nc3nccc(-c4cnn5ncccc45)n3)cc2C#N)CC1` [Compound 1]: the inhibition at 10 µM in series [1] came out at 95.4%; in [2] it was 0%; in series [3], 0%; in [4], 99.2%; in series [5], 0%; in series [7], 78.3%. The inhibition at 10 µM in [8] is 99.8%; in [9], 100%; in series [10] it was 0%; in series [11] it was 98.1%; in series [12], 82.8%; in series [13] it was 67.8%. For the same molecule, the CC50 at 48 h in [6] is more than 100 µM.

Take `COc1ccc(Nc2nccc(-c3cnn4ncccc34)n2)cc1` [Compound 2]: the inhibition at 10 µM in series [1] was determined as 0%; in [2] it was 0%; in series [3] it was 0%; in series [4] it was 85%; in [5] it was 0%; in series [7], 80.9%. In addition, the inhibition at 10 µM is 0% in series [8]; 100% in [9]; 0% in [10]; 77.9% in [11]; 0% in series [12]; 0% in series [13]. The molecule also registered a CC50 at 48 h in series [6] of more than 100 µM.

For `Cc1ccc(O)cc1Nc1ccnc(Nc2cccc(C(N)=O)c2)n1` [Compound 3], the inhibition at 10 µM in series [1] is 93.4%; in series [2], 99.9%; in [3] it was 97.5%; in series [4], 100%; in series [5] it was 74.3%; in [8], 79.3%. Also, the inhibition at 10 µM came to 0% in [9]; 79% in [10]; 83.5% in [11]; 0% in series [12]; 0% in [13]. For the same molecule, the CC50 at 48 h in series [6] stood at 33.1 µM.

On to `Cc1ccc(O)cc1N(C)c1ccnc(Nc2cccc(S(N)(=O)=O)c2)n1` [Compound 4], for which the inhibition at 10 µM in [1] was found to be 100%; in series [2], 100%; in series [3], 100%; in [4], 100%; in series [5] it was 94.2%; in [7], 98.7%. The inhibition at 10 µM in series [8] was 98.5%; in [9], 96.9%; in [10], 0%; in [11], 99.5%; in [12], 90%; in [13], 0%.

Consider `Fc1cccc(COc2ccc(Nc3ncnc4c3CN(CCN3CCOCC3)CC4)cc2Cl)c1` [Compound 6], for which the inhibition at 10 µM amounted to 97.6% in series [1]; 0% in series [2]; 0% in [3]; 0% in series [4]; 0% in [5]; 0% in series [7]. For the same molecule, the inhibition at 10 µM in series [8] stood at 0%; in series [9], 0%; in series [10] it was 0%; in [11] it was 0%; in series [12] it was 0%; in [13], 71.4%. The CC50 at 48 h in [6] amounted to 46.7 µM.

As for `COc1cc(Nc2nccc(-c3sc(N)nc3-c3cccc(NC(=O)c4c(F)cccc4F)c3)n2)cc(OC)c1OC` [Compound 7], the inhibition at 10 µM in series [1] turned out to be 90%; in [2] it was 100%; in [3] it was 100%; in series [4], 100%; in series [5] it was 100%; in [7], 98.9%. Besides, the inhibition at 10 µM in series [8] was 99.8%; in series [9], 0%; in series [10], 99.8%; in [11], 99.8%; in series [12] it was 0%; in series [13] it was 0%. The CC50 at 48 h in series [6] is 2.6 µM.

As to `C[C@@H](Oc1cc(-c2cnc3ccccn23)sc1C(N)=O)c1ccccc1Cl` [Compound 8], the inhibition at 10 µM in series [1], in [2], in series [3], in series [4], in series [5] and in series [7] was 0% in each case. Besides, the inhibition at 10 µM came to 0% in [8]; 0% in [9]; 95.6% in series [10]; 100% in series [11]; 0% in series [12]; 79.3% in series [13].

Consider `c1ccc(COc2cccc(-c3ccnc4[nH]ccc34)c2)cc1` [Compound 9], for which the inhibition at 10 µM in [1], in series [2], in series [3], in [4], in series [5] and in [7] was 0% each time. The inhibition at 10 µM in series [8], in series [9], in series [10], in series [11], in [12] and in series [13] was 0% in each case.

For the molecule `Clc1ccc(Nc2ncc(-c3ccccc3)s2)cc1` [Compound 10], the inhibition at 10 µM in [1] is 0%; in series [2], 86%; in series [3], 0%; in series [4], 0%; in [5], 0%; in series [7], 0%. Besides, the inhibition at 10 µM in [8], in series [9], in series [10], in [11], in series [12] and in [13] was 0% throughout.

In the case of `Nc1ncc2c(-c3ccncc3)c[nH]c2n1` [Compound 11], the inhibition at 10 µM in [1] worked out at 0%; in series [2] it was 0%; in [3], 0%; in [4], 93.3%; in series [5], 0%; in series [7], 75.9%. In addition, the inhibition at 10 µM in series [8] was 0%; in series [9] it was 78.2%; in series [10], 0%; in series [11], 75.5%; in series [12], 0%; in series [13] it was 0%. Moreover, it took 50.1 µM to reach half-maximal cytotoxicity in [6] (CC50 at 48 h).
